Reference: ChEMBL document CHEMBL1201862, “PubChem BioAssay data set” (2004)
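1) Cells in 96-well plates. 2) Compound, 48 h, 5 concentrations. 3) Linear interpolation between surrounding doses. 4) Unreached endpoint = highest concentration. GI50 = concentration required for 50% inhibition of growth.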 Calls of active or inactive are those of the source. Cut-off read from the data, not from the text of the source: active = GI50 up to about 1.1 µM and inactive = higher.

How the values were obtained:
Test in all cases: inhibition of tumour cell growth, NCI panel, 48 h
BT-549 = test system: BT-549
CCRF-CEM = test system: CCRF-CEM
COLO 205 = test system: COLO 205
EKVX = test system: EKVX
HCC 2998 = test system: HCC 2998
HCT-15 = test system: HCT-15
HOP-62 = test system: HOP-62
HOP-92 = test system: HOP-92
HT-29 = test system: HT-29
IGROV-1 = test system: IGROV-1
MCF7 = test system: MCF7
NCI-H226 = test system: NCI-H226
SW-620 = test system: SW-620
TK-10 = test system: TK-10
UACC-62 = test system: UACC-62
Malme-3M = test system: Malme-3M
RPMI-8226 = test system: RPMI-8226
U-251 = test system: U-251
SNB-75 = test system: SNB-75

| Structure (SMILES) | GI50 (BT-549) | GI50 (CCRF-CEM) | GI50 (COLO 205) | GI50 (EKVX) | GI50 (HCC 2998) | GI50 (HCT-15) | GI50 (HOP-62) | GI50 (HOP-92) | GI50 (HT-29) | GI50 (IGROV-1) | GI50 (MCF7) | GI50 (NCI-H226) | GI50 (SW-620) | GI50 (TK-10) | GI50 (UACC-62) | GI50 (Malme-3M) | GI50 (RPMI-8226) | GI50 (U-251) | GI50 (SNB-75) |
| --- | --- | --- | --- | --- | --- | --- | --- | --- | --- | --- | --- | --- | --- | --- | --- | --- | --- | --- | --- |
| CN(Cc1cnc2nc(N)nc(N)c2n1)c1ccc(C(=O)NC(CCS(=O)(=O)O)C(=O)O)cc1 (stereo not drawn) | > 100 µM (inactive) | 0.0312 µM (active) | > 72.3 µM (inactive) | 1.31 µM (inactive) | 0.916 µM (active) | 0.25 µM | 0.783 µM (active) | > 100 µM (inactive) | 4.02 µM (inactive) | 0.553 µM (active) | 0.268 µM (active) | 15.7 µM (inactive) | 0.379 µM (active) | > 100 µM (inactive) | 0.508 µM (active) |  |  |  |  |
| CCN1C(=O)C(=C/C=C/c2ccc(OC)cc2)C(=O)N(CC)C1=S | 26.7 µM (inactive) | 20.6 µM (inactive) | 18.5 µM (inactive) | 24 µM (inactive) | 53.2 µM (inactive) | 17.5 µM | 18.6 µM (inactive) | 14.2 µM (inactive) | 22.6 µM (inactive) | 16.3 µM (inactive) | 33.8 µM (inactive) | 32.9 µM (inactive) | 20.8 µM (inactive) | 17.5 µM (inactive) | 16.7 µM (inactive) | 12.5 µM (inactive) | 33.6 µM (inactive) | 18.9 µM (inactive) |  |
| CC(=O)OCC1OC(n2cnc(C(N)=S)c2N)C(OC(C)=O)C1OC(C)=O (stereo not drawn) | > 100 µM (inactive) | > 100 µM (inactive) | > 100 µM (inactive) |  | > 100 µM (inactive) | > 100 µM | > 100 µM (inactive) | > 100 µM (inactive) | > 100 µM (inactive) | > 100 µM (inactive) | > 100 µM (inactive) | > 100 µM (inactive) | > 100 µM (inactive) | > 100 µM (inactive) | > 100 µM (inactive) | > 100 µM (inactive) | > 100 µM (inactive) | > 100 µM (inactive) | > 100 µM (inactive) |
| COc1nc(C(Cl)(Cl)Cl)c(Cl)c(O)c1Cl | > 100 µM (inactive) | > 100 µM (inactive) | > 100 µM (inactive) | > 100 µM (inactive) | > 100 µM (inactive) | > 100 µM | > 100 µM (inactive) | > 100 µM (inactive) | > 100 µM (inactive) | > 100 µM (inactive) | > 100 µM (inactive) | > 100 µM (inactive) | > 100 µM (inactive) | > 100 µM (inactive) | > 100 µM (inactive) | > 100 µM (inactive) | > 100 µM (inactive) | > 100 µM (inactive) |  |
| N#Cc1c(O)c(/C=N/c2ncccn2)c(=O)n2c1[nH]c1ccccc12 | > 100 µM (inactive) | > 100 µM (inactive) | > 100 µM (inactive) | > 100 µM (inactive) | > 100 µM (inactive) | > 100 µM |  | > 100 µM (inactive) | > 100 µM (inactive) | > 100 µM (inactive) | 88.9 µM (inactive) | > 100 µM (inactive) | > 100 µM (inactive) | > 100 µM (inactive) |  | > 100 µM (inactive) | > 100 µM (inactive) | > 100 µM (inactive) | 44.1 µM (inactive) |
| CCCCSC1=N/C(=C\c2ccccc2O)C(=O)N1 | 49.4 µM (inactive) |  | > 100 µM (inactive) | 35.7 µM (inactive) | 53.2 µM (inactive) | 96.6 µM | > 100 µM (inactive) | 44 µM (inactive) | 70.6 µM (inactive) | > 100 µM (inactive) | 33.5 µM (inactive) | > 100 µM (inactive) | > 100 µM (inactive) | 76.9 µM (inactive) | 44.3 µM (inactive) | > 100 µM (inactive) | 75.5 µM (inactive) | 43.8 µM (inactive) | > 100 µM (inactive) |
| C=CCn1c(-c2cc(C(C)(C)C)c(O)c(C(C)(C)C)c2)cs/c1=N\C(P(=O)(O)O)P(=O)(O)O | > 100 µM (inactive) |  | > 100 µM (inactive) | > 100 µM (inactive) | > 100 µM (inactive) | > 100 µM | > 100 µM (inactive) | > 100 µM (inactive) | > 100 µM (inactive) | > 100 µM (inactive) | > 100 µM (inactive) | > 100 µM (inactive) | > 100 µM (inactive) | > 100 µM (inactive) |  | > 100 µM (inactive) | > 100 µM (inactive) | > 100 µM (inactive) | > 100 µM (inactive) |
| CC(=O)Oc1ccc(/C=C/C(=O)OCCCOC(=O)/C=C/c2ccc(OC(C)=O)c(OC(C)=O)c2)cc1OC(C)=O | > 100 µM (inactive) |  | > 100 µM (inactive) | > 100 µM (inactive) | > 100 µM (inactive) | > 100 µM | 51.2 µM (inactive) | > 100 µM (inactive) | > 100 µM (inactive) | > 100 µM (inactive) | > 100 µM (inactive) |  | > 100 µM (inactive) | > 100 µM (inactive) | > 100 µM (inactive) | > 100 µM (inactive) | > 100 µM (inactive) | > 100 µM (inactive) | > 100 µM (inactive) |
